In US20160030459A1, “COMPOSITIONS AND METHODS FOR TREATING ALLERGIC CONDITIONS” (IMMUNE DESIGN CORP., priority 2014, published 2016):

Legend:
various human cell types = assay: Effect of GLA adjuvant in vitro on cytokine expression of human cells; type: cell-based
Procedure: (§1) The effect of GLA adjuvant in vitro on various human cell types was evaluated.

[1] = system: dendritic cells (both myeloid and monocyte-derived); assay: Activation and maturation of dendritic cells in vitro; type: cell-based, human
Procedure: as §1

[2] = system: Male cynomolgus macaques with a known sensitivity to inhaled Ascaris suum; assay: Primate model of allergic rhinitis, intranasal adjuvant; type: in vivo, cynomolgus macaque
Procedure: GLA adjuvant was evaluated in a nonhuman primate allergic rhinitis model. Male cynomolgus macaques with a known sensitivity to inhaled Ascaris suum were treated with a composition comprising a GLA adjuvant, in an aqueous formulation, via intranasal delivery.
12 animals were assigned randomly to each of vehicle or drug treatment groups. The drug treatment group received 100 μl of a composition containing 5.0 μg GLA adjuvant in an aqueous formulation, intranasally in each nostril, for a total dose of 10 μg. The vehicle group received 100 μl of vehicle in each nostril. The adjuvant or vehicle was administered intranasally once weekly for 4 consecutive weeks. All intranasal dosing was administered using a Penn Century Microsprayer.
The animals were challenged with Ascaris suum into the left nostril concurrent with treatment on days 0 and 14 (at the first and third treatment times).
Animals with severe rhinitis have reduced nasal area or increased nasal congestion as compared to those with improved response and increased nasal area or decreased nasal congestion. Nasal lavage samples were also obtained and total and differential cell count were evaluated.
Briefly, animals were sedated and placed on a ventilator. Blood samples were drawn. A baseline Acoustic Rhinometer measurement (nasal volume and nasal minimum cross-sectional area) was taken in the left nostril followed by instillation of 100 μl saline using a microspayer. After instillation of saline, Acoustic Rhinometry measurements (nasal volume and nasal minimum cross-sectional area) were taken at 2 minutes. Next 100 μl of A. suum (10.0 mg/ml) was instilled into the left nostril using a microsprayer and Acoustic Rhinometry measurements were taken at 1, 2, 3 minutes. Fifteen minutes after A. suum challenge a nasal lavage was performed using 3.0 ml saline injected into the left nostril. After nasal lavage, sedation was reversed.
Total cell count in the nasal lavage samples was determined using the Advia120 hematology analyzer (SOP BW-INM-Resp-SOP-09033). Differential cell counts were performed with cystospins manually on 200 cells using standard morphological criteria.

OVA-sensitized mice = assay: Prophylactic dosing regimens in murine model of allergy; type: in vivo, mouse
Procedure: Three different prophylactic dosing regimens of GLA adjuvant, in an aqueous formulation, were evaluated in the same murine model of allergy described in Example 2. Mice were divided into three treatment arms (20 mice per group), treated as follows starting at 1 week post OVA sensitization, and then challenged with OVA or saline (negative control):
Vehicle-treated at day 14; Saline challenged (negative control) Vehicle-treated at day 14; OVA challenged (positive control) GLA-treated at day 14, with a single dose of GLA (2 ug/animal, i.n.); OVA challenged GLA-treated on days 14, 15, 16, 17, with 4 doses of GLA on consecutive days (each dose 2 ug/animal, i.n.); OVA challenged GLA+Ag-treated on day 14, single dose GLA (2 ug/animal, i.n.)+OVA antigen (20 ug/animal, i.n.); OVA challenged
The animals were challenged with OVA or saline i.n. for 4 consecutive days, 5-7 days post treatment (at days 22, 23, 24 and 25). Airway hyperresponsiveness (AHR) was determined at 1 or 2 days post challenge (the large number of animals required two days to complete the AHR testing). Bronchoalveolar lavage fluid (BALF), thoracic lymph nodes and spleen were collected for FACS & cytokine analysis, and serum was collected for IgE and IgG levels.

[3] = system: Male Balb/c mice sensitized with OVA; assay: Murine model of chronic allergy (OVA-induced airway inflammation and hyperreactivity); type: in vivo, mouse
Procedure: The effect of GLA was evaluated in a chronic model Of OVA-induced airway inflammation and airway hyperreactivity in mice. Male Balb/c mice were sensitized systemically with OVA i.p. over a 2 week period (days 0 & 14). One week later, they were challenged with OVA i.n for 3 consecutive days (days 22 through 24). The animals were then treated once with GLA, in an aqueous formulation, i.n., 1 day post-challenge (day 25) as follows (20 mice per group):
Vehicle-treated; Saline challenged (negative control) Vehicle-treated; OVA challenged (positive control) GLA-treated, single dose (2 ug/animal, i.n.); OVA challenged
The animals were challenged again with OVA i.n. 1 month later (days 55 & 56). AHR as described above in Example 2 was performed 1-2 days post 2nd challenge (the large number of animals required two days to complete the AHR testing). Bronchoalveolar lavage fluid (BALF), thoracic lymph nodes and spleen were collected for FACS & cytokine analysis, and serum was collected for IgE and IgG levels.

[4] = system: Male cynomolgus macaques with a known sensitivity to inhaled Ascaris suum; assay: Primate model of allergic rhinitis, intramuscular adjuvant; type: in vivo, cynomolgus macaque; details: GLA 10 ug intramuscularly, four weekly doses; ascaris antigens intranasally
Procedure: GLA adjuvant was evaluated in a nonhuman primate allergic rhinitis model. Male cynomolgus macaques with a known sensitivity to inhaled Ascaris suum were treated with a composition comprising a GLA adjuvant, in an oil-based emulsion formulation, with and without allergen, via intramuscular delivery.
Animals (n=12) were treated with four doses of GLA (10 ug) at weekly intervals and were exposed to Ascaris suum antigens at the same time. The evaluation of the response was determined by acoustic rhinometry which measured the nasal area as an indication of congestion Animals with severe rhinitis have reduced nasal area or increased nasal congestion as compared to those with improved response and increased nasal area or decreased nasal congestion.
In this study, animals treated with GLA-SE were compared with animals treated with SE alone. In addition, ascaris antigens in conjunction with GLA were tested. Ascaris antigens were either delivered in combination with GLA via the intramuscular route of administration, or were delivered intranasally separate from the intramuscular GLA treatment.

[5] = system: mice presensitized with intra-gastric RPE; assay: Murine model of peanut allergy, related study with GLA-SE +/- peanut extract; type: in vivo, mouse; details: with or without antigen, s.c.
Procedure: In a related study, mice were presensitized with intra-gastric RPE six times at days 0, 1, 2, 7, 14 and 21 (FIG. 15). On days 29, 35, 42 and 49, mice were treated subcutaneously with 2 ug GLA-SE or 2 ug GLA-SE+50 ug RPE. Mice were subsequently challenged by intraperitoneal administration on study day 55 with 12 mg RPE. Anaphylaxis scores and body temperature of mice were then measured. […] Disease scoring was as follows: 1: mild anaphylaxis (scratching, mild snout swelling); 2: Moderate anaphylaxis (mod swelling, mild lethargy) 3: =Severe anaphylaxis (severe swelling, lethargy); 4: Very severe anaphylaxis (moribund, labored breathing); 5: Death.

[6] = system: PBMCs from peanut allergic subjects; assay: T cell proliferation and cytokine expression of PBMCs from peanut-allergic subjects; type: cell-based, human
From the text: PBMCs were collected from peanut allergic and non-allergic subjects (n=4) and evaluated for T cell proliferation and cytokine expression after exposure to peanut extract and GLA. […] In addition, these samples had increased tolerogenic IL-10 expression and […] IL-2 expression indicative of inhibition of T cell proliferation.

[7] = system: PBMCs from Timothy Grass allergic subjects; assay: Cytokine expression of PBMCs from Timothy grass-allergic subjects; type: cell-based, human; details: Timothy grass allergen and GLA
From the text: PBMCs were collected from Timothy Grass allergic and non-allergic subjects and evaluated for T cell cytokine expression after exposure to Timothy grass allergen and GLA. As shown in FIG. 16A-16D, GLA decreased IL-5 and increased IFN-γ, IL-12 and TNF-alpha cytokine response to Timothy grass allergen.

[8] = treatment period (weeks 1-4) and 4 weeks post treatment (weeks 5-8)
[9] = 4 doses on days 14, 15, 16, 17, each 2 ug/animal i.n.
[10] = single dose day 14, 2 ug/animal i.n.
[11] = Day 1 after peanut extract and GLA exposure

CCCCCCCCCCCCCC(=O)OC(CCCCCCCCCCC)CC(=O)NC1C(OCC2OC(O)C(NC(=O)CC(O)CCCCCCCCCCC)C(OC(=O)CC(O)CCCCCCCCCCC)C2O)OC(CO)C(OP(=O)(O)O)C1OC(=O)CC(CCCCCCCCCCC)OC(=O)CCCCCCCCCCCCC (centres unmarked) [GLA, glucopyranosyl lipid A]
GM-CSF expression (various human cell types): induced expression
IL-1β expression (various human cell types): induced expression
IL-6 expression (various human cell types): induced expression
IL-8 expression (various human cell types): induced expression
IL-10 expression (various human cell types): induced expression
TNF-α expression (various human cell types): induced expression
activation and maturation of dendritic cells [1]: induced activation and maturation
percentage of baseline nasal cross sectional area ([2]; 10 μg intranasal once weekly for 4 weeks, compared with vehicle): increased
antigen-induced nasal congestion ([2]; aqueous formulation, 10 μg intranasal once weekly for 4 weeks, A. suum challenge): reduced
differential cell count (lymphocyte, monocyte, granuolocyte, neutrophil, eosinophil or basophil cell numbers) [2, 8]: not altered
platelet counts [2, 8]: did not alter
red blood cell counts [2, 8]: did not alter
white blood cell counts [2, 8]: did not alter
CD3+ T cells in BALF (OVA-sensitized mice; [9]): decreased
eosinophil in BALF (OVA-sensitized mice; [9]): decreased
total leukocytes in BALF (OVA-sensitized mice; [9]): decreased
cellularity systemically, in spleen or lymph nodes (OVA-sensitized mice; i.n. GLA treatment): did not alter
numbers of CD3+ T cells in BALF (OVA-sensitized mice; [10]): did not alter
numbers of eosinophils in BALF (OVA-sensitized mice; [10]): did not alter
numbers of macrophages in BALF (OVA-sensitized mice; [10]): did not alter
leukocyte cell count in BALF (including eosinophil, macrophage or CD3+ T cell counts) ([3]; single dose 2 ug/animal i.n.): did not alter
time after GLA dosing for which effects could be observed ([3]; single dose 2 ug/animal i.n.): at least 1 month
airway hyperresponsiveness ([3]; single dose 2 ug/animal i.n. day 25, 1 month before allergen challenge): attenuate
IL-4 expression in the airway after allergen challenge ([3]; single dose 2 ug/animal i.n. one month before allergen challenge): attenuate
nasal rhinitis scores [4]: did not improve
peanut allergy in a mouse model [5]: attenuates
IL12p70 (IL-12) expression [6, 11]: increased
IL-2 expression [6, 11]: increased
interferon gamma expression [6, 11]: increased
tolerogenic IL-10 expression [6, 11]: increased
CD4 T cell proliferation ([6]; Day 6 after exposure to peanut extract and GLA): dose-dependent antigen specific inhibition
IL-12 cytokine response to Timothy grass allergen ([7]; 2 day culture): increases
TNF-alpha cytokine response to Timothy grass allergen ([7]; 2 day culture): increases
IFN-γ cytokine response to Timothy grass allergen ([7]; 6 day culture): increases
IL-5 cytokine response to Timothy grass allergen ([7]; 6 day culture): decreases
